Patent publication US20230241242A1, “PREPARATION METHOD FOR ANTIBODY MEDICAMENT CONJUGATE” (priority 2020, published 2023)

Legend:
[1] = test system: SK-BR-3 tumor cells; assay: Inhibition of in vitro proliferation of tumor cells by compounds (CTG, 6 days); assay type: cell-based; settings: Homo sapiens, SK-BR-3, 144 h, read-out: IC50 in inhibiting in vitro proliferation of SK-BR-3 cells
Method: (§1) This experiment was intended to detect the inhibitory activity of the pharmaceutical compounds of the present disclosure against the in vitro proliferation of U87MG cells (Cell Bank, Chinese Academy of Sciences, Catalog #TCHu138) and SK-BR-3 tumor cells (human breast cancer cells, ATCC, Cat #HTB-30). The cells were treated in vitro with a compound at different concentrations. After 6 days of culture, the proliferation of cells was tested using CTG (CellTiter-Glo® Luminescent Cell Viability Assay, Promega, Cat #G7573) reagents, and the in vitro activity of the compound was evaluated according to IC50 value.
(§2) The method for testing the inhibition of the in vitro proliferation of U87MG cells was described below as an example for the method for assaying for the inhibitory activity of the compounds of the present disclosure against the in vitro proliferation of tumor cells.
(§3) 1. Cell culture: U87MG and SK-BR-3 cells were cultured in EMEM medium (GE, Cat #SH30024.01) containing 10% FBS and McCoy's 5A medium (Gibco, Cat #16600-108) containing 10% FBS, respectively.
(§4) 2. Cell preparation: U87MG and SK-BR-3 cells growing at log phase were washed once with PBS (phosphate buffer, Shanghai BasalMedia Technologies Co., Ltd.) and then digested with 2-3 mL of trypsin (0.25% Trypsin-EDTA (1×), Gibico, Life Technologies) for 2-3 min After the cells were completely digested, 10-15 mL of cell culture media were added to elute the digested cells. The mixtures were centrifuged at 1000 rpm for 5 min, and the supernatants were discarded. Then the cells were resuspended in 10-20 mL of cell culture media to give single-cell suspensions.
(§5) 3. Cell plating: the U87MG and SK-BR-3 single-cell suspensions were each well mixed and adjusted with cell culture media to cell densities of 2.75×10^3 cells/mL and 8.25×10^3 cells/mL, respectively. The adjusted cell suspensions were each well mixed and added to 96-well cell culture plates at 180 μL/well. To each of the peripheral wells of the 96-well plates was added 200 μL of media only. The plate was incubated in an incubator for 24 h (37° C., 5% CO2).
(§6) 4. Compound preparation: the compound was dissolved in DMSO (dimethyl sulfoxide, Shanghai Titan Scientific Co., Ltd.) to prepare a stock solution at an initial concentration of 10 mM.
(§7) Small molecule compounds were prepared at an initial concentration of 500 nM as follows.
(§8) Different test samples at 100 μM (30 μL) were added to the first column of a 96-well U-bottom plate, and 20 μL of DMSO was added to each well of the second column through the eleventh column. […]
(§9) 7. Plate reading: the 96-well cell culture plate was taken out and tested in a microplate reader (BMG labtech, PHERAstar FS) for chemiluminescence.
(§10) Data were processed and analyzed using Microsoft Excel and Graphpad Prism 5.

[2] = test system: U87MG cells; assay: as above; assay type: cell-based; settings: Homo sapiens, U-87 MG, 144 h, read-out: IC50 in inhibiting in vitro proliferation of U87 cells
Method: as §1, §2, §3, §4, §5, §6, §7, §8, §9, §10

[3] = test system: human breast cancer cells trastuzumab drug-resistant strain (herceptin) JIMT-1 xenograft tumor; assay: Drug efficacy on JIMT-1 tumor-bearing mice; assay type: in vivo, nu/nu nude mice; settings: 10 mg/kg; two intraperitoneal injections; observation for 34 days
Method: The tumor volumes and body weights were measured twice a week and the results were recorded.
Tumor volume (V) was calculated as: V=½×Llong×Lshort^2

Row | Compound | IC50 [1] | IC50 [2] | tumor inhibition rate [3]
1 | CC[C@@]1(O)C(=O)OCc2c1cc1n(c2=O)Cc2c-1nc1cc(F)c(C)c3c1c2[C@@H](NC(=O)C1(O)CC1)CC3 [Compound 1, N-((1S,9S)-9-ethyl-5-fluoro-9-hydroxy-4-methyl-10,13-dioxo-2,3,9,10,13,15-hexahydro-1H,12H-benzo[de]pyrano[3′,4′:6,7]indolizino[1,2-b]quinolin-1-yl)-1-hydroxycyclopropane-1-carboxamide] | 0.12 nM | 0.23 nM | 
2 | CC[C@@]1(O)C(=O)OCc2c1cc1n(c2=O)Cc2c-1nc1cc(F)c(C)c3c1c2[C@@H](NC(=O)C1(O)CCCC1)CC3 [Compound 4, N-((1S,9S)-9-ethyl-5-fluoro-9-hydroxy-4-methyl-10,13-dioxo-2,3,9,10,13,15-hexahydro-1H,12H-benzo[de]pyrano[3′,4′:6,7]indolizino[1,2-b]quinolin-1-yl)-1-hydroxycyclopentane-1-carboxamide] | 1.9 nM |  | 
3 | CC[C@@]1(O)C(=O)OCc2c1cc1n(c2=O)Cc2c-1nc1cc(F)c(C)c3c1c2[C@@H](NC(=O)C1(CO)CC1)CC3 [Compound 5, N-((1S,9S)-9-ethyl-5-fluoro-9-hydroxy-4-methyl-10,13-dioxo-2,3,9,10,13,15-hexahydro-1H,12H-benzo[de]pyrano[3′,4′:6,7]indolizino[1,2-b]quinolin-1-yl)-1-(hydroxymethyl)cyclopropane-1-carboxamide] |  | 4.81 nM | 
4 | T-DM1 |  |  | no inhibition effect on tumors
